How the values were obtained:
[1] = target: T1, HDAC 6 (Homo sapiens, UniProt Q9UBN7); experiment: Enzyme activity detection of histone deacetylase 6 (fluorogenic substrate deacetylation); assay type: biochemical; conditions: 0.35 ng/μL HDAC 6, 20 μM substrate, 30 min at 37° C.; IC50 class
T1 construct: purchased BPS Bioscience #50076
T1 sequence (Q9UBN7 1-1215): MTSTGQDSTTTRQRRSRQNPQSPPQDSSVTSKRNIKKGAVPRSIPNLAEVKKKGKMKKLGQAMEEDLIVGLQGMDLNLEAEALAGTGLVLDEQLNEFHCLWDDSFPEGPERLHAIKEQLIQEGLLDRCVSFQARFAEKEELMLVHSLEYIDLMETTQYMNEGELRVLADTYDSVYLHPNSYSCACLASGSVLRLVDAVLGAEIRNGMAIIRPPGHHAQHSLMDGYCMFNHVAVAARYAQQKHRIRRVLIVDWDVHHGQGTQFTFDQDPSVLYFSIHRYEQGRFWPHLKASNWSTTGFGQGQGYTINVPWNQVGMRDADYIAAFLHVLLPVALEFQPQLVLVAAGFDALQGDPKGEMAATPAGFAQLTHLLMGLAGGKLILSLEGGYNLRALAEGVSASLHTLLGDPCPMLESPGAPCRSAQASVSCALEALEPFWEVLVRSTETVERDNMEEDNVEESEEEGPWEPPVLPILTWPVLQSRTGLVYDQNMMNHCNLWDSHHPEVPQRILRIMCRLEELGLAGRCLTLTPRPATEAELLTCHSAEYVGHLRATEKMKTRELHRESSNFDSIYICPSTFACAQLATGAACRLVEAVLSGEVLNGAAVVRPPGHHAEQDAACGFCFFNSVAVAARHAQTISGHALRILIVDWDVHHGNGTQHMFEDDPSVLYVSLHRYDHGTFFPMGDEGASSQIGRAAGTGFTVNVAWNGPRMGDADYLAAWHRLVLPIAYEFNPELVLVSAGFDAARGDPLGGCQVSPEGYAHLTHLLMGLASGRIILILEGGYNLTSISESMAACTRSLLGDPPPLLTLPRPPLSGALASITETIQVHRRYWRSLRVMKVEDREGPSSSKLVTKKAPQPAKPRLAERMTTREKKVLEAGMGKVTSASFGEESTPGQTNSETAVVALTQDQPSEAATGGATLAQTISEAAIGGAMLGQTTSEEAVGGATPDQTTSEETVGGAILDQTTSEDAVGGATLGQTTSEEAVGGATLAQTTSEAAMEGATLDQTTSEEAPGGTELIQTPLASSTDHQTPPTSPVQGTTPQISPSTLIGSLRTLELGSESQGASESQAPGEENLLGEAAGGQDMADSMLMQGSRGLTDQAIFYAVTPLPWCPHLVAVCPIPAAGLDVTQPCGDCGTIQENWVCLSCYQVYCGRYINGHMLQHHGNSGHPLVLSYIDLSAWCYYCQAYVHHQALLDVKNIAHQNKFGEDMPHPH
Excerpt: (§1) During the deacetylation detection of a substrate, the HDAC inhibition activity of the compound of the present invention was detected.
A: Enzyme Activity Detection of Histone Deacetylase 6 (#50076, BPS Bioscience)
(§2) Acetyl on the substrate was removed by the HDAC 6, so that the substrate was activated, and the developing liquid added subsequently could act on the substrate to release the fluorescent group. The size of the fluorescence signal reflected the activity of the HDAC 6. The IC50 detection method for this enzyme was disclosed in Chuping Xu, Elisabetta Soragni Improved Histone Deacetylase Inhibitors as Therapeutics for the Neurdegenerative Disease Friedreich's Ataxia: A New Synthetic Route. The total reaction system (100 μL/well) contained 0.35 ng/μL of HDAC 6, 20 μM of the substrate and the compound in different concentrations. The reaction system was incubated for 30 min at 37° C., and the fluorescence signal was then measured. The inhibition effect of the compound was determined from the obtained data, a concentration response curve was obtained by using the inhibition effect and the concentration of the compound, and the value of IC50 was fitted according to a four-parameter model.
(§3) The activities of the compounds prepared in the embodiments against the histone deacetylases 1, 3 and 6 (i.e., HDAC 1, HDAC 3 and HDAC 6) were detected by the above methods, and the test results were shown in Table 2, where the measurements of IC50 of the compounds were classified according to the following description: […]

[2] = target: T2, HDAC 3 (Homo sapiens, UniProt O15379); experiment: Enzyme activity detection of histone deacetylase 3 (fluorogenic substrate deacetylation); assay type: biochemical; conditions: 0.16 ng/μL HDAC 3, 10 μM substrate; IC50 class
T2 construct: purchased BPS Bioscience #50003
Excerpt: as §1
B: Enzyme Activity Detection of Histone Deacetylase 3 (#50003, BPS Bioscience)
as §2, with “3,” for “6,”, “3.” for “6.”, “0.16” for “0.35”, “3, 10” for “6, 20”, “The” for “The reaction system was incubated for 30 min at 37° C., and the”, “detected online at Ex/Em=360/460.” for “then measured.”
as §3

T2 sequence (O15379 whole entry): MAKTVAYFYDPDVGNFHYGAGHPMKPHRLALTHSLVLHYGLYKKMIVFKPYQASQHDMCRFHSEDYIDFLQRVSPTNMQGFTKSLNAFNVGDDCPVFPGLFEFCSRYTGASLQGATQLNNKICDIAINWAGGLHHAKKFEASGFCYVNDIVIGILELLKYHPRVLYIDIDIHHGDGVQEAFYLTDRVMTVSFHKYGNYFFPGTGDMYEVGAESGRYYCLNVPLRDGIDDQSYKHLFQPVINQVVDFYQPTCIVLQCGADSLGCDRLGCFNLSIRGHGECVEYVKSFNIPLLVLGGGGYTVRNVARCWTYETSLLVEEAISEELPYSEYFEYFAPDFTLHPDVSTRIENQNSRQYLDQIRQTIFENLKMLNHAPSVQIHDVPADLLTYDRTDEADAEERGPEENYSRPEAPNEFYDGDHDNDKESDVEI
T2 sequence (Q9Y618 395-489 partner limits assumed): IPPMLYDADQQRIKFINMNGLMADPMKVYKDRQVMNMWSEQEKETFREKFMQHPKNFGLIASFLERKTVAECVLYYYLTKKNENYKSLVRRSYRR

IC50 [1]: < 100 nM
IC50 [2]: < 100 nM
Structure (SMILES): CN1CCN(c2ccc(-c3ccc(S(=O)(=O)N4CC=C(C(=O)NO)CC4)cc3)cc2)CC1 [Compound 29, N-hydroxyl-1-((4′-(4-methylpiperazinyl)-[1,1′-biphenyl]-4-yl)sulfonyl)-1,2,3,6-tetrahydropyridine-4-formamide]
